Source: PubChem BioAssay AID330 (DTP/NCI, 2004)
Where “and” joins values, the source holds several entries; their conditions need not be identical. Identical values can stand only once. Toxic doses and inconclusive results are not listed.

Test system: P388 leukemia ip, CD2F1 mice, survival T/C
Experiment: NCI In Vivo Anticancer Drug Screen. Data for tumor model P388 Leukemia (intraperitoneal) in CD2F1 (CDF1) mice
Conditions: endpoint: median survival time, higher = longer survival
Summary of the method: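 Mice carrying the transplanted tumor received test compound or vehicle. Survival was recorded in each group, and the value is the treated-group measurement divided by that of the vehicle-treated control group.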

[1] = dose: 50.0 mg/kg/injection, schedule: Q01DX005 (ip), vehicle: saline with Tween-80
[2] = dose: 100.0 mg/kg/injection, schedule: Q01DX005 (ip), vehicle: saline with Tween-80
[3] = dose: 200.0 mg/kg/injection, schedule: Q01DX005 (ip), vehicle: saline with Tween-80
[4] = dose: 50.0 mg/kg/injection, schedule: Q01DX009 (ip), vehicle: Klucel (hydroxypropylcellulose) (HPC)
[5] = dose: 100.0 mg/kg/injection, schedule: Q01DX009 (ip), vehicle: Klucel (hydroxypropylcellulose) (HPC)
[6] = dose: 200.0 mg/kg/injection, schedule: Q01DX009 (ip), vehicle: Klucel (hydroxypropylcellulose) (HPC)
[7] = dose: 100.0 mg/kg/injection, schedule: Q01DX001 (ip), vehicle: Klucel (hydroxypropylcellulose) (HPC)
[8] = dose: 200.0 mg/kg/injection, schedule: Q01DX001 (ip), vehicle: Klucel (hydroxypropylcellulose) (HPC)
[9] = dose: 6.25 mg/kg/injection, schedule: Q01DX005 (ip), vehicle: saline with Tween-80
[10] = dose: 12.5 mg/kg/injection, schedule: Q01DX005 (ip), vehicle: saline with Tween-80
[11] = dose: 25.0 mg/kg/injection, schedule: Q01DX005 (ip), vehicle: saline with Tween-80
[12] = dose: 6.25 mg/kg/injection, schedule: Q01DX009 (ip), vehicle: saline
[13] = dose: 12.5 mg/kg/injection, schedule: Q01DX009 (ip), vehicle: saline

Fc1cccc(NC(=S)SCc2ccco2)c1
T/C (dose: 50.0 mg/kg/injection, schedule: Q01DX009 (ip), vehicle: suspension in saline): 93 % of control
T/C (dose: 100.0 mg/kg/injection, schedule: Q01DX009 (ip), vehicle: suspension in saline): 90 % of control
T/C (dose: 200.0 mg/kg/injection, schedule: Q01DX009 (ip), vehicle: suspension in saline): 107 % of control

CCn1cc(C(=O)O)c(=O)c2cc3c(cc21)OCO3
T/C (dose: 60.0 mg/kg/injection, schedule: Q01DX005 (ip), vehicle: Klucel (hydroxypropylcellulose) (HPC)): 100 % of control
T/C (dose: 120.0 mg/kg/injection, schedule: Q01DX005 (ip), vehicle: Klucel (hydroxypropylcellulose) (HPC)): 103 % of control
T/C (dose: 240.0 mg/kg/injection, schedule: Q01DX005 (ip), vehicle: Klucel (hydroxypropylcellulose) (HPC)): 100 % of control

C=CCOc1cc2c(cc1C(C)c1ccc(F)cc1)OCO2 (configuration not stated)
T/C [1]: 100 % of control
T/C [2]: 104 % of control
T/C [3]: 100 % of control

CCn1c2ccccc2c2cc(N)c(N=Nc3ccc([N+](=O)[O-])cc3)cc21
T/C [4]: 105 % of control
T/C [5]: 104 % of control
T/C [6]: 105 % of control

CN1C(=O)/C(=[N+](/[O-])c2ccccc2-c2ccccc2)c2ccccc21
T/C (dose: 100.0 mg/kg/injection, schedule: Q04DX002 (ip), vehicle: saline with Tween-80): 99 % of control
T/C (dose: 200.0 mg/kg/injection, schedule: Q04DX002 (ip), vehicle: saline with Tween-80): 100 % of control
T/C (dose: 400.0 mg/kg/injection, schedule: Q04DX002 (ip), vehicle: saline with Tween-80): 97 % of control

Oc1ccc(Cc2ccc(O)cc2)cc1
T/C (dose: 100.0 mg/kg/injection, schedule: Q04DX003 (ip), vehicle: saline with Tween-80): 102 % of control
T/C (dose: 200.0 mg/kg/injection, schedule: Q04DX003 (ip), vehicle: saline with Tween-80): 101 % of control
T/C (dose: 400.0 mg/kg/injection, schedule: Q04DX003 (ip), vehicle: saline with Tween-80): 115 % of control

COc1cc(C=NC2CCCCC2)c(Br)c(OC)c1OC
T/C [7]: 107 % of control
T/C [8]: 107 % of control
T/C (dose: 400.0 mg/kg/injection, schedule: Q01DX001 (ip), vehicle: Klucel (hydroxypropylcellulose) (HPC)): 107 % of control

CC1(C)C(=O)N(Cl)C(=O)N1Cl
T/C (dose: 6.25 mg/kg/injection, schedule: Q01DX005 (ip), vehicle: Klucel (hydroxypropylcellulose) (HPC)): 100 % of control and 95 % of control
T/C [9]: 92 % of control
T/C (dose: 12.5 mg/kg/injection, schedule: Q01DX005 (ip), vehicle: Klucel (hydroxypropylcellulose) (HPC)): 102 % of control and 101 % of control
T/C [10]: 87 % of control
T/C (dose: 16.5 mg/kg/injection, schedule: Q01DX009 (ip), vehicle: saline with Tween-80): 104 % of control
T/C (dose: 25.0 mg/kg/injection, schedule: Q01DX005 (ip), vehicle: Klucel (hydroxypropylcellulose) (HPC)): 106 % of control
T/C [11]: 97 % of control

CCCCn1ccnc1C
T/C [12]: 109 % of control
T/C [13]: 91 % of control
T/C (dose: 25.0 mg/kg/injection, schedule: Q01DX009 (ip), vehicle: saline): 103 % of control

CCCCCCCCCCCCSC1COC2C(SCCCCCCCCCCCC)COC12 (configuration not stated)
T/C [1]: 100 % of control
T/C [2]: 96 % of control
T/C [3]: 99 % of control

CSC(=S)N/N=C(\C)c1nccnc1C
T/C [1]: 101 % of control
T/C [2]: 106 % of control
T/C [3]: 111 % of control

CC(=O)Cn1ccccc1=O
T/C (dose: 60.0 mg/kg/injection, schedule: Q01DX005 (ip), vehicle: saline): 99 % of control
T/C (dose: 120.0 mg/kg/injection, schedule: Q01DX005 (ip), vehicle: saline): 94 % of control
T/C (dose: 240.0 mg/kg/injection, schedule: Q01DX005 (ip), vehicle: saline): 99 % of control

Cc1nc2ccc(CCN3CCN(c4ccccc4Cl)CC3)cc2[nH]1
T/C (dose: 50.0 mg/kg/injection, schedule: Q01DX001 (ip), vehicle: Klucel (hydroxypropylcellulose) (HPC)): 100 % of control
T/C [7]: 108 % of control and 120 % of control
T/C [8]: 116 % of control and 93 % of control

CC1=C(CO)C(=O)OC(C(C)C2CCC3C4CC5OC56C(O)C(N5CCOCC5)CC(=O)C6(C)C4CCC23C)C1 (configuration not stated)
T/C (dose: 8.25 mg/kg/injection, schedule: Q01DX005 (ip), vehicle: Klucel (hydroxypropylcellulose) (HPC)): 103 % of control
T/C (dose: 16.5 mg/kg/injection, schedule: Q01DX005 (ip), vehicle: Klucel (hydroxypropylcellulose) (HPC)): 99 % of control
T/C (dose: 33.0 mg/kg/injection, schedule: Q01DX005 (ip), vehicle: Klucel (hydroxypropylcellulose) (HPC)): 97 % of control
T/C (dose: 66.0 mg/kg/injection, schedule: Q01DX005 (ip), vehicle: Klucel (hydroxypropylcellulose) (HPC)): 97 % of control
T/C (dose: 132.0 mg/kg/injection, schedule: Q01DX005 (ip), vehicle: Klucel (hydroxypropylcellulose) (HPC)): 103 % of control

COc1cc(NCCCCCCCNC(C)C)c2nccc(C)c2c1
T/C (dose: 3.13 mg/kg/injection, schedule: Q01DX009 (ip), vehicle: saline): 105 % of control
T/C [12]: 102 % of control
T/C [13]: 99 % of control

CC(C)=CC1CC(=O)OC1(C)C (configuration not stated)
T/C (dose: 12.5 mg/kg/injection, schedule: Q04DX002 (ip), vehicle: saline with Tween-80): 98 % of control
T/C (dose: 25.0 mg/kg/injection, schedule: Q04DX002 (ip), vehicle: saline with Tween-80): 104 % of control
T/C (dose: 50.0 mg/kg/injection, schedule: Q04DX002 (ip), vehicle: saline with Tween-80): 100 % of control

COCC1(CCC(C)=C(C)C)Nc2ccc(C(=O)O)cc2CC1Cl (configuration not stated)
T/C (dose: 1.25 mg/kg/injection, schedule: Q01DX005 (ip), vehicle: Klucel (hydroxypropylcellulose) (HPC)): 98 % of control
T/C (dose: 2.5 mg/kg/injection, schedule: Q01DX005 (ip), vehicle: Klucel (hydroxypropylcellulose) (HPC)): 101 % of control

CC(C)(C)OC(=O)NC(Cc1cn(Cc2ccccc2)cn1)C(=O)O (configuration not stated)
T/C (dose: 50.0 mg/kg/injection, schedule: Q01DX009 (ip), vehicle: saline with Tween-80): 96 % of control
T/C (dose: 100.0 mg/kg/injection, schedule: Q01DX009 (ip), vehicle: saline with Tween-80): 89 % of control
T/C (dose: 200.0 mg/kg/injection, schedule: Q01DX009 (ip), vehicle: saline with Tween-80): 108 % of control

c1ccc2c(c1)NC1=C(CSCC1)c1nncn1-2
T/C (dose: 100.0 mg/kg/injection, schedule: Q05DX002 (ip), vehicle: Klucel (hydroxypropylcellulose) (HPC)): 104 % of control
T/C (dose: 200.0 mg/kg/injection, schedule: Q05DX002 (ip), vehicle: Klucel (hydroxypropylcellulose) (HPC)): 100 % of control
T/C (dose: 400.0 mg/kg/injection, schedule: Q05DX002 (ip), vehicle: Klucel (hydroxypropylcellulose) (HPC)): 109 % of control

CN(C)c1nc(-c2ccccc2)c(Cc2ccccc2)c(=O)o1
T/C (dose: 60.0 mg/kg/injection, schedule: Q01DX005 (ip), vehicle: saline with Tween-80): 99 % of control
T/C (dose: 120.0 mg/kg/injection, schedule: Q01DX005 (ip), vehicle: saline with Tween-80): 92 % of control
T/C (dose: 240.0 mg/kg/injection, schedule: Q01DX005 (ip), vehicle: saline with Tween-80): 89 % of control

O=C1c2cc3c(-c4ccccc4)oc(-c4ccccc4)c3cc2C(=O)c2c(O)ccc(O)c21
T/C [9]: 94 % of control
T/C [10]: 94 % of control
T/C [11]: 94 % of control
T/C [3]: 99 % of control

O=C(Nc1n[nH]c(NC(=O)c2ccccc2)n1)c1ccccc1
T/C (dose: 50.0 mg/kg/injection, schedule: Q01DX005 (ip), vehicle: Klucel (hydroxypropylcellulose) (HPC)): 92 % of control
T/C (dose: 100.0 mg/kg/injection, schedule: Q01DX005 (ip), vehicle: Klucel (hydroxypropylcellulose) (HPC)): 88 % of control

O=C1N(Br)C(=O)C(c2ccc(Cl)cc2)(c2ccc(Cl)cc2)N1Br
T/C (dose: 11.0 mg/kg/injection, schedule: Q01DX009 (ip), vehicle: saline with Tween-80): 122 % of control
T/C (dose: 150.0 mg/kg/injection, schedule: Q01DX009 (ip), vehicle: saline with Tween-80): 154 % of control

CCCC(NC(=O)C(C)N)C(=O)O (configuration not stated)
T/C [4]: 107 % of control
T/C [5]: 95 % of control
T/C [6]: 102 % of control
T/C (dose: 400.0 mg/kg/injection, schedule: Q01DX009 (ip), vehicle: Klucel (hydroxypropylcellulose) (HPC)): 102 % of control
